Columns and labels:
CXCR3 [1] = target: T1, CXCR3 (Homo sapiens, UniProt P49682); experiment: [3H]-VUF11211 radioligand displacement after LC nanofractionation, HEK293/CXCR3 membranes; type: binding
T1 construct: human CXCR3 in HEK293/CXCR3 membranes
T1 sequence (P49682 1-368): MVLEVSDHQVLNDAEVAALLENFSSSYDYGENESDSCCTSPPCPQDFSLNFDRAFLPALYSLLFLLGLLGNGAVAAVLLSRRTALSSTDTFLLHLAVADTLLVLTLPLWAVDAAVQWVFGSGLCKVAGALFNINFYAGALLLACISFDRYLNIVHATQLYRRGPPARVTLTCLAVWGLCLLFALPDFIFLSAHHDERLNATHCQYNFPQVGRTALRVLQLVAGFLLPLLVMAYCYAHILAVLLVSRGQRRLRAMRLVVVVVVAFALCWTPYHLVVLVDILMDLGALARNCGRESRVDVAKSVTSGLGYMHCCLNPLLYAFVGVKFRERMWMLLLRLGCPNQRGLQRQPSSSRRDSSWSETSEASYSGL

CXCR3 [2] = target: T1, CXCR3; experiment: [3H]-VUF11211 radioligand displacement after LC nanofractionation, HEK293/CXCR3 membranes; […]-CXCL10 displacement also shown; type: binding

Structure (SMILES): CCOc1ccc(-n2c([C@@H](C)N(Cc3cccnc3)C(=O)Cc3ccc(F)c(C(F)(F)F)c3)nc3ncccc3c2=O)cc1 [NBI-74330]
- Ki (CXCR3 [1]): 12.6 nM

Structure (SMILES): CCNC(=O)c1cnc(N2CCN(C3CCN(Cc4ccc(Cl)cc4)CC3)[C@@H](CC)C2)c(Cl)c1 [VUF11211]
- Kd (CXCR3 [2]): 0.501 nM
